From patent US20240108006A1, “PESTICIDALLY ACTIVE HETEROAROMATIC COMPOUNDS” (SYNGENTA CROP PROTECTION AG, priority 2021, published 2024)

Tests used:
Format in all cases: in vivo
Plutella xylostella = assay: Example B8: Plutella xylostella (diamond back moth), artificial diet 24-well, eggs; conditions: 192 h, application rate of 200 ppm, 8 days after infestation, read-out: effect in at least one of the two categories (mortality or growth inhibition)
Method: Example B8: Plutella xylostella (Diamond Back Moth)
24-well microtiter plates with artificial diet were treated with aqueous test solutions prepared from 10,000 ppm DMSO stock solutions by pipetting. After drying, Plutella eggs were pipetted through a plastic stencil onto a gel blotting paper and the plate was closed with it. The samples were assessed for mortality and growth inhibition in comparison to untreated samples 8 days after infestation.
The following compounds gave an effect of at least 80% in at least one of the two categories (mortality or growth inhibition) at an application rate of 200 ppm: […]

Spodoptera littoralis = assay: Example B9: Spodoptera littoralis (Egyptian cotton leaf worm), cotton leaf discs, L1 larvae; conditions: foliar, 72 h, application rate of 200 ppm, 3 days after infestation, read-out: control in at least one of the three categories (mortality, anti-feedant effect, or growth inhibition)
Method: Example B9: Spodoptera littoralis (Egyptian Cotton Leaf Worm)
Cotton leaf discs were placed onto agar in 24-well microtiter plates and sprayed with aqueous test solutions prepared from 10,000 ppm DMSO stock solutions. After drying the leaf discs were infested with five L1 larvae. The samples were assessed for mortality, anti-feeding effect, and growth inhibition in comparison to untreated samples 3 days after infestation. Control of Spodoptera littoralis by a test sample is given when at least one of the categories mortality, anti-feedant effect, and growth inhibition is higher than the untreated sample.

Chilo suppressalis = assay: Example B1: Chilo suppressalis (striped rice stemborer), artificial diet, L2 larvae; conditions: 144 h, application rate of 200 ppm, 6 days after infestation, read-out: control in at least one of the three categories (mortality, anti-feedant effect, or growth inhibition)
Method: Example B1: Chilo suppressalis (Striped Rice Stemborer)
24-well microtiter plates with artificial diet were treated with aqueous test solutions prepared from 10,000 ppm DMSO stock solutions by pipetting. After drying, the plates were infested with L2 larvae (6-8 per well). The samples were assessed for mortality, anti-feeding effect, and growth inhibition in comparison to untreated samples 6 days after infestation. Control of Chilo suppressalis by a test sample is given when at least one of the categories mortality, anti-feedant effect, and growth inhibition is higher than the untreated sample.

What does the source list for `C[C@H](NC(=O)Nc1ccc(Cl)c(C(F)(F)F)c1)c1nccnc1-c1ccc(C#N)cn1` [Example P7, 1-[4-chloro-3-(trifluoromethyl)phenyl]-3-[(1S)-1-[3-(5-cyano-2-pyridyl)pyrazin-2-yl]ethyl]urea]?
percent effect (mortality or growth inhibition) at 200 ppm (Plutella xylostella): ≥ 80%; percent control (mortality, anti-feedant effect or growth inhibition) at 200 ppm (Spodoptera littoralis): ≥ 80%; percent control (mortality, anti-feedant effect or growth inhibition) at 200 ppm (Chilo suppressalis): ≥ 80%

How did the percent effect (mortality or growth inhibition) at 200 ppm (Plutella xylostella) turn out when `C[C@H](NC(=O)Nc1ccc(Cl)c(C(F)(F)F)c1)c1nccnc1-c1ncccn1` [Example P11, 1-[4-chloro-3-(trifluoromethyl)phenyl]-3-[(1S)-1-(3-pyrimidin-2-ylpyrazin-2-yl)ethyl]urea] was run?
Its percent effect (mortality or growth inhibition) at 200 ppm is no less than 80%.

And the percent control (mortality, anti-feedant effect or growth inhibition) at 200 ppm (Spodoptera littoralis)?
Its percent control (mortality, anti-feedant effect or growth inhibition) at 200 ppm is no less than 80%.

For `C[C@H](NC(=S)Nc1ccc(Cl)c(C(F)(F)F)c1)c1ncnn1-c1ncccn1` [Example P15, 1-[4-chloro-3-(trifluoromethyl)phenyl]-3-[(1S)-1-(2-pyrimidin-2-yl-1,2,4-triazol-3-yl)ethyl]thiourea], which percent control (mortality, anti-feedant effect or growth inhibition) at 200 ppm (Spodoptera littoralis) is on record?
Its percent control (mortality, anti-feedant effect or growth inhibition) at 200 ppm is no less than 80%.

And the percent control (mortality, anti-feedant effect or growth inhibition) at 200 ppm (Chilo suppressalis)?
Its percent control (mortality, anti-feedant effect or growth inhibition) at 200 ppm is no less than 80%.

How did the percent effect (mortality or growth inhibition) at 200 ppm (Plutella xylostella) turn out when `C[C@H](NC(=O)Nc1cc(Cl)c(Oc2ncc(C(F)(F)F)cc2Cl)c(Cl)c1)c1ncnn1-c1ncccn1` [Example P26, 1-[3,5-dichloro-4-[[3-chloro-5-(trifluoromethyl)-2-pyridyl]oxy]phenyl]-3-[(1S)-1-(2-pyrimidin-2-yl-1,2,4-triazol-3-yl)ethyl]urea] was run?
The percent effect (mortality or growth inhibition) at 200 ppm was no less than 80%.

And the percent control (mortality, anti-feedant effect or growth inhibition) at 200 ppm (Spodoptera littoralis)?
Its percent control (mortality, anti-feedant effect or growth inhibition) at 200 ppm is no less than 80%.

Which results are given for `C[C@H](NC(=O)Nc1cc(C(F)(F)F)ccc1Br)c1ncnn1-c1ncccn1` [Example P70, 1-[2-bromo-5-(trifluoromethyl)phenyl]-3-[(1S)-1-(2-pyrimidin-2-yl-1,2,4-triazol-3-yl)ethyl]urea]?
percent effect (mortality or growth inhibition) at 200 ppm (Plutella xylostella): ≥ 80%; percent control (mortality, anti-feedant effect or growth inhibition) at 200 ppm (Spodoptera littoralis): ≥ 80%; percent control (mortality, anti-feedant effect or growth inhibition) at 200 ppm (Chilo suppressalis): ≥ 80%

Which percent effect (mortality or growth inhibition) at 200 ppm (Plutella xylostella) does the source give for `C[C@H](NC(=O)Nc1ccc(Br)cc1I)c1ncnn1-c1ncccn1` [Example P76, 1-(4-bromo-2-iodo-phenyl)-3-[(1S)-1-(2-pyrimidin-2-yl-1,2,4-triazol-3-yl)ethyl]urea] here?
Its percent effect (mortality or growth inhibition) at 200 ppm is no less than 80%.

What about the percent control (mortality, anti-feedant effect or growth inhibition) at 200 ppm (Spodoptera littoralis) of the same compound?
The percent control (mortality, anti-feedant effect or growth inhibition) at 200 ppm was no less than 80%.

And the percent control (mortality, anti-feedant effect or growth inhibition) at 200 ppm (Chilo suppressalis)?
The percent control (mortality, anti-feedant effect or growth inhibition) at 200 ppm was no less than 80%.

With `C[C@H](NC(=O)Nc1ccc(Cl)c(C(F)(F)F)c1)c1ncnn1-c1ncccn1` [Example P131, 1-[4-chloro-3-(trifluoromethyl)phenyl]-3-[(1S)-1-(2-pyrimidin-2-yl-1,2,4-triazol-3-yl)ethyl]urea] as the compound, how does the percent control (mortality, anti-feedant effect or growth inhibition) at 200 ppm (Spodoptera littoralis) read?
The percent control (mortality, anti-feedant effect or growth inhibition) at 200 ppm was no less than 80%.

And the percent control (mortality, anti-feedant effect or growth inhibition) at 200 ppm (Chilo suppressalis)?
The percent control (mortality, anti-feedant effect or growth inhibition) at 200 ppm was no less than 80%.

For `Cc1cc(Cl)c(Cl)cc1NC(=O)N[C@@H](C)c1ncnn1-c1ncccn1` [Example P191, 1-(4,5-dichloro-2-methyl-phenyl)-3-[(1S)-1-(2-pyrimidin-2-yl-1,2,4-triazol-3-yl)ethyl]urea], which percent effect (mortality or growth inhibition) at 200 ppm (Plutella xylostella) is on record?
The percent effect (mortality or growth inhibition) at 200 ppm was no less than 80%.

What about the percent control (mortality, anti-feedant effect or growth inhibition) at 200 ppm (Spodoptera littoralis) of the same compound?
The percent control (mortality, anti-feedant effect or growth inhibition) at 200 ppm was no less than 80%.

How did the percent effect (mortality or growth inhibition) at 200 ppm (Plutella xylostella) turn out when `C#CCOc1cc(NC(=O)N[C@@H](C)c2ncnn2-c2ncccn2)c(F)cc1Br` [Example P203, 1-(4-bromo-2-fluoro-5-prop-2-ynoxy-phenyl)-3-[(1S)-1-(2-pyrimidin-2-yl-1,2,4-triazol-3-yl)ethyl]urea] was run?
The percent effect (mortality or growth inhibition) at 200 ppm was no less than 80%.

What about the percent control (mortality, anti-feedant effect or growth inhibition) at 200 ppm (Spodoptera littoralis) of the same compound?
Its percent control (mortality, anti-feedant effect or growth inhibition) at 200 ppm is no less than 80%.

Which results are given for `C[C@H](NC(=O)Nc1cc(Oc2ccc(C(F)(F)F)cn2)c(Cl)cc1Cl)c1ncnn1-c1ncccn1` [Example P209, 1-[2,4-dichloro-5-[[5-(trifluoromethyl)-2-pyridyl]oxy]phenyl]-3-[(1S)-1-(2-pyrimidin-2-yl-1,2,4-triazol-3-yl)ethyl]urea]?
percent effect (mortality or growth inhibition) at 200 ppm (Plutella xylostella): ≥ 80%; percent control (mortality, anti-feedant effect or growth inhibition) at 200 ppm (Spodoptera littoralis): ≥ 80%

`CC(NC(=O)Nc1cnc(Br)cc1Br)c1nccnc1-c1ncccn1` (centres unmarked) [Example P242, 1-(4,6-dibromo-3-pyridyl)-3-[1-(3-pyrimidin-2-ylpyrazin-2-yl)ethyl]urea] was tested. Which percent control (mortality, anti-feedant effect or growth inhibition) at 200 ppm (Spodoptera littoralis) did it give?
Its percent control (mortality, anti-feedant effect or growth inhibition) at 200 ppm is no less than 80%.

And the percent control (mortality, anti-feedant effect or growth inhibition) at 200 ppm (Chilo suppressalis)?
The percent control (mortality, anti-feedant effect or growth inhibition) at 200 ppm was no less than 80%.

How did the percent effect (mortality or growth inhibition) at 200 ppm (Plutella xylostella) turn out when `C[C@H](NC(=O)Nc1ccc(Br)cc1OC(F)F)c1ncnn1-c1ccc(C#N)cn1` [Example P254, 1-[4-bromo-2-(difluoromethoxy)phenyl]-3-[(1S)-1-[2-(5-cyano-2-pyridyl)-1,2,4-triazol-3-yl]ethyl]urea] was run?
The percent effect (mortality or growth inhibition) at 200 ppm was no less than 80%.

And the percent control (mortality, anti-feedant effect or growth inhibition) at 200 ppm (Spodoptera littoralis)?
The percent control (mortality, anti-feedant effect or growth inhibition) at 200 ppm was no less than 80%.

`CC(NC(=O)Nc1cnc(Br)cc1Br)c1nccnc1-n1nccn1` (centres unmarked) [Example P262, 1-(4,6-dibromo-3-pyridyl)-3-[1-[3-(triazol-2-yl)pyrazin-2-yl]ethyl]urea] was tested. Which percent control (mortality, anti-feedant effect or growth inhibition) at 200 ppm (Spodoptera littoralis) did it give?
The percent control (mortality, anti-feedant effect or growth inhibition) at 200 ppm was no less than 80%.

Which results are given for `C[C@H](NC(=O)Nc1cc(Br)c(F)cc1F)c1ncnn1-c1ncccn1` [Example P343, 1-(5-bromo-2,4-difluoro-phenyl)-3-[(1S)-1-(2-pyrimidin-2-yl-1,2,4-triazol-3-yl)ethyl]urea]?
percent control (mortality, anti-feedant effect or growth inhibition) at 200 ppm (Spodoptera littoralis): ≥ 80%; percent control (mortality, anti-feedant effect or growth inhibition) at 200 ppm (Chilo suppressalis): ≥ 80%

For `C[C@H](NC(=O)Nc1cc(Br)c(C(F)(F)F)cc1F)c1ncnn1-c1ncccn1` [Example P350, 1-[5-bromo-2-fluoro-4-(trifluoromethyl)phenyl]-3-[(1S)-1-(2-pyrimidin-2-yl-1,2,4-triazol-3-yl)ethyl]urea], which percent control (mortality, anti-feedant effect or growth inhibition) at 200 ppm (Spodoptera littoralis) is on record?
Its percent control (mortality, anti-feedant effect or growth inhibition) at 200 ppm is no less than 80%.

What about the percent control (mortality, anti-feedant effect or growth inhibition) at 200 ppm (Chilo suppressalis) of the same compound?
Its percent control (mortality, anti-feedant effect or growth inhibition) at 200 ppm is no less than 80%.

With `COC(=O)c1cc2c(cc1NC(=O)N[C@@H](C)c1ncnn1-c1ncccn1)OC(F)(F)O2` [Example P369, methyl 2,2-difluoro-6-[[(1S)-1-(2-pyrimidin-2-yl-1,2,4-triazol-3-yl)ethyl]carbamoylamino]-1,3-benzodioxole-5-carboxylate] as the compound, how does the percent effect (mortality or growth inhibition) at 200 ppm (Plutella xylostella) read?
The percent effect (mortality or growth inhibition) at 200 ppm was no less than 80%.

What about the percent control (mortality, anti-feedant effect or growth inhibition) at 200 ppm (Spodoptera littoralis) of the same compound?
The percent control (mortality, anti-feedant effect or growth inhibition) at 200 ppm was no less than 80%.

`C[C@H](NC(=O)Nc1cc2c(cc1Cl)OCO2)c1ncnn1-c1ncccn1` [Example P370, 1-(6-chloro-1,3-benzodioxol-5-yl)-3-[(1S)-1-(2-pyrimidin-2-yl-1,2,4-triazol-3-yl)ethyl]urea] was tested. Which percent control (mortality, anti-feedant effect or growth inhibition) at 200 ppm (Spodoptera littoralis) did it give?
The percent control (mortality, anti-feedant effect or growth inhibition) at 200 ppm was no less than 80%.

What about the percent control (mortality, anti-feedant effect or growth inhibition) at 200 ppm (Chilo suppressalis) of the same compound?
Its percent control (mortality, anti-feedant effect or growth inhibition) at 200 ppm is no less than 80%.

`C[C@H](NC(=O)Nc1cc(Cl)c(Br)cc1F)c1ncnn1-c1ncccn1` [Example P373, 1-(4-bromo-5-chloro-2-fluoro-phenyl)-3-[(1S)-1-(2-pyrimidin-2-yl-1,2,4-triazol-3-yl)ethyl]urea] was tested. Which percent control (mortality, anti-feedant effect or growth inhibition) at 200 ppm (Spodoptera littoralis) did it give?
Its percent control (mortality, anti-feedant effect or growth inhibition) at 200 ppm is no less than 80%.

What about the percent control (mortality, anti-feedant effect or growth inhibition) at 200 ppm (Chilo suppressalis) of the same compound?
The percent control (mortality, anti-feedant effect or growth inhibition) at 200 ppm was no less than 80%.

For `COc1cc(F)c(F)cc1NC(=O)N[C@@H](C)c1ncnn1-c1ncccn1` [Example P383, 1-(4,5-difluoro-2-methoxy-phenyl)-3-[(1S)-1-(2-pyrimidin-2-yl-1,2,4-triazol-3-yl)ethyl]urea], which percent control (mortality, anti-feedant effect or growth inhibition) at 200 ppm (Spodoptera littoralis) is on record?
Its percent control (mortality, anti-feedant effect or growth inhibition) at 200 ppm is no less than 80%.

What about the percent control (mortality, anti-feedant effect or growth inhibition) at 200 ppm (Chilo suppressalis) of the same compound?
The percent control (mortality, anti-feedant effect or growth inhibition) at 200 ppm was no less than 80%.

With `COc1cc(OC)c(NC(=O)N[C@@H](C)c2ncnn2-c2ncccn2)cc1Cl` [Example P387, 1-(5-chloro-2,4-dimethoxy-phenyl)-3-[(1S)-1-(2-pyrimidin-2-yl-1,2,4-triazol-3-yl)ethyl]urea] as the compound, how does the percent control (mortality, anti-feedant effect or growth inhibition) at 200 ppm (Spodoptera littoralis) read?
The percent control (mortality, anti-feedant effect or growth inhibition) at 200 ppm was no less than 80%.
